BindingDB's records for doi:10.1016/j.ejmech.2016.06.019 (Federal University of Minas Gerais, 2016)

Experiment: Activation of NQO1 in human A549 cells assessed as decrease in cell survival incubated for 2 hrs measured after 7 days in presence of NQO1 inhibitor dicoumarol by Hoechst 33258 staining based assay

Structure (SMILES): CC1(C)OC2=C(C(=O)C(=O)c3ccccc32)C1Nc1cccc(-c2cn(C[Se]c3ccccc3)nn2)c1 (centres undefined)
- IC50: > 3.2 µM

Structure (SMILES): CC1(C)OC2=C(C(=O)C(=O)c3ccccc32)C1Nc1cccc([N+](=O)[O-])c1 (centres undefined)
- IC50: > 3.2 µM

Structure (SMILES): CC1(C)OC2=C(C(=O)C(=O)c3ccccc32)C1Nc1ccc(F)c([N+](=O)[O-])c1 (centres undefined)
- IC50: > 3.2 µM

Structure (SMILES): CC1(C)OC2=C(C(=O)C(=O)c3ccccc32)C1Nc1ccc([N+](=O)[O-])cc1 (centres undefined)
- IC50: > 3.2 µM
